PubChem BioAssay (NCI)
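Cultured in 96-well plates, cells were exposed to test compound for 48 hours across five concentrations. TGI: total growth inhibition.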

Experiments:
Test in all cases: inhibition of tumour cell growth, NCI panel, 48 h
[1] = tested on: NCI-H460 lung
[2] = tested on: UO-31 renal
[3] = tested on: SNB-19 CNS
[4] = tested on: OVCAR-5 ovarian
[5] = tested on: SK-OV-3 ovarian
[6] = tested on: KM12 colon
[7] = tested on: OVCAR-8 ovarian
[8] = tested on: SK-MEL-28 melanoma
[9] = tested on: NCI-H522 lung
[10] = tested on: SF-268 CNS
[11] = tested on: SR leukemia
[12] = tested on: A549 NSCLC
[13] = tested on: 786-0 renal
[14] = tested on: HT29 colon
[15] = tested on: HOP-62 NSCLC
[16] = tested on: MDA-MB-435
[17] = tested on: NCI/ADR-RES ovarian
[18] = tested on: CCRF-CEM leukemia
[19] = tested on: PC-3 prostate

| Compound | TGI [1] | TGI [2] | TGI [3] | TGI [4] | TGI [5] | TGI [6] | TGI [7] | TGI [8] | TGI [9] | TGI [10] | TGI [11] | TGI [12] | TGI [13] | TGI [14] | TGI [15] | TGI [16] | TGI [17] | TGI [18] | TGI [19] |
| --- | --- | --- | --- | --- | --- | --- | --- | --- | --- | --- | --- | --- | --- | --- | --- | --- | --- | --- | --- |
| COc1cc2c3c(c1OC)C1(C=CC(=O)C=C1)C[C@H]3N(C)CC2 | > 100 µM | > 100 µM | > 100 µM | > 100 µM | > 100 µM | > 100 µM | > 100 µM | > 100 µM | > 100 µM | > 100 µM | > 100 µM | > 100 µM | > 100 µM | > 100 µM | – | – | – | – | – |
| CC1=C(CO)C(=O)O[C@@H]([C@@H](CO)[C@H]2CCC3C4C[C@@H](O)[C@@]5(O)CC=CC(=O)[C@]5(C)C4CC[C@@]32C)C1 (some centres undefined) | – | 57.1 µM | > 100 µM | > 100 µM | > 100 µM | > 100 µM | > 100 µM | – | > 100 µM | > 100 µM | > 100 µM | > 100 µM | > 100 µM | > 100 µM | > 100 µM | > 100 µM | > 100 µM | > 100 µM | – |
| COc1cc(OC)c(C2c3cc4c(cc3OC(N3CCCC3)C2C)OCO4)c(OC)c1 (centres undefined) | 32.5 µM | 25.8 µM | 51.1 µM | 69 µM | – | 30.2 µM | > 100 µM | 46.2 µM | 48.7 µM | 40.3 µM | 29.6 µM | 87.9 µM | 53.8 µM | 28.7 µM | 40.1 µM | – | 67 µM | 45.5 µM | 49 µM |
| O=C1C(=Cc2ccccc2O)N=C(c2ccccc2)N1n1c(-c2ccccc2)nc2ccccc2c1=O | > 100 µM | 86.5 µM | > 100 µM | – | > 100 µM | 98.4 µM | > 100 µM | > 100 µM | 67.1 µM | 88.3 µM | > 100 µM | > 100 µM | > 100 µM | > 100 µM | 96.8 µM | > 100 µM | – | 88.6 µM | > 100 µM |
| CCCCN=C(c1ccccc1)N1CCOCC1 | > 100 µM | > 100 µM | > 100 µM | > 100 µM | > 100 µM | > 100 µM | > 100 µM | > 100 µM | – | > 100 µM | > 100 µM | – | > 100 µM | > 100 µM | > 100 µM | > 100 µM | > 100 µM | > 100 µM | > 100 µM |
| Cc1ccc(O)c(-c2cscn2)c1 | > 100 µM | > 100 µM | > 100 µM | > 100 µM | > 100 µM | – | > 100 µM | – | – | – | > 100 µM | > 100 µM | > 100 µM | > 100 µM | > 100 µM | > 100 µM | > 100 µM | > 100 µM | > 100 µM |
| COc1ccc(C2COc3cc(O)c(O)cc3C2)cc1 (centres undefined) | 213 µM | 279 µM | 214 µM | 264 µM | 163 µM | 164 µM | 63.3 µM | 32.9 µM | 14.1 µM | 127 µM | – | 188 µM | – | 204 µM | 232 µM | – | 27.1 µM | 16.1 µM | – |
| Cn1c2ccccc2c(=O)c2cccc(C(=O)NC(CCCN=C(N)N)C(=O)O)c21 (centres undefined) | > 100 µM | > 100 µM | > 100 µM | > 100 µM | > 100 µM | > 100 µM | > 100 µM | > 100 µM | – | > 100 µM | – | > 100 µM | > 100 µM | > 100 µM | > 100 µM | > 100 µM | 96 µM | – | > 100 µM |
| Cc1ccc(S(=O)(=O)NC(=O)N[C@@H](Cc2cnc[nH]2)C(=O)O)cc1 | > 100 µM | > 100 µM | > 100 µM | > 100 µM | > 100 µM | > 100 µM | > 100 µM | > 100 µM | > 100 µM | > 100 µM | – | > 100 µM | > 100 µM | > 100 µM | > 100 µM | – | > 100 µM | > 100 µM | > 100 µM |
| CSc1sc2ccccc2[s+]1 | > 100 µM | > 100 µM | > 100 µM | > 100 µM | > 100 µM | > 100 µM | > 100 µM | – | > 100 µM | > 100 µM | > 100 µM | > 100 µM | > 100 µM | > 100 µM | > 100 µM | – | – | > 100 µM | – |
| Cc1cc(NCc2ccccc2)c2ccccc2[n+]1CCCCCCCCCC[n+]1c(C)cc(NCc2ccccc2)c2ccccc21 | – | 7.15 µM | > 100 µM | 12.7 µM | 6.85 µM | 0.796 µM | 6.71 µM | 2.16 µM | 44.3 µM | 2.45 µM | – | 4.39 µM | 2.44 µM | 1.63 µM | – | 1.65 µM | 21.9 µM | – | 5.16 µM |
| Cc1cc(S(=O)(=O)Nc2nc3cc(-c4ccc(Cl)cc4)sc3c(=O)n2N)c(S)cc1Cl | > 100 µM | > 100 µM | > 100 µM | > 100 µM | > 100 µM | > 100 µM | > 100 µM | > 100 µM | > 100 µM | > 100 µM | – | > 100 µM | > 100 µM | > 100 µM | > 100 µM | > 100 µM | > 100 µM | 59 µM | > 100 µM |
| O=NN(CCCl)C(=O)NC1CCC(O)CC1 (centres undefined) | > 100 µM | > 100 µM | > 100 µM | > 100 µM | > 100 µM | > 100 µM | > 100 µM | 63.4 µM | 55.4 µM | 43.3 µM | – | > 100 µM | – | > 100 µM | > 100 µM | – | 69.4 µM | 52.2 µM | – |
| COc1ccc(/C=C2\N=C(SC)NC2=O)cc1 | – | 45.3 µM | > 100 µM | > 100 µM | > 100 µM | > 100 µM | > 100 µM | > 100 µM | > 100 µM | > 100 µM | – | > 100 µM | > 100 µM | > 100 µM | > 100 µM | > 100 µM | > 100 µM | > 100 µM | > 100 µM |
